Assay results: patent US20080213390A1, “Deuterium Depleted Water (Ddw) Using As Adjuvant In Cancer Therapy For Cytostatics Toxicity Reducing” (priority 2005, published 2008)
Like-named read-outs stand apart in the source and are kept apart here.

Key:
[1] = Measurement of protein, glycoprotein and serum protein glycolysis; format: in vivo, Wistar rats; conditions: for Amount of glycolysis with Deuterium Depleted Water: 60 ppm DDW daily diet; for Percentage of decrease of protein glycolysis in animals receiving DDW: DDW versus tap water; for Amount of Glycolysis with Tap Water: tap water daily diet
Text: The methods used for these measurements are well known (measuring burette and the (glucidic) glucose compound dosing in the reaction with orto-toluidine).

[2] = serum, 8 rats per lot
[3] = Procedure: 60 ppm concentration Deuterium Depleted Water was used for healthy adult outbred Wistar rats. Mono-chemotherapy was used to treat these animals using the following cytostatics: Vinblastine (VBL); Cyclophosphamide (CFS); 5-Fluorouracil (5-Fu); Farmarubicine (FARM). The administered doses were:
VBL—0.1 mg/kg body weight;
5-Fu—10 mg/kg body weight; and
FARM—1 mg/kg body weight.
The cytostatics were intra-peritoneally administered (i.p.) for 5 days consecutively.
The animals were distributed into two groups, as:
Animal sacrifice occurred over 5 and 10 days, respectively from the last cytostatic dose. After animal sacrifice, some tests were performed: bio-chemical, cyto-histological and morphological tests (on liver, spleen, kidneys), and tests for 3HTdR incorporation into lymphoid organs (bone marrow and lympho-nodules).
The protective effect of the 60 ppm Deuterium Depleted Water against the toxicity generated by cytostatics were studied using lots of 88 Wistar rats, each lot, males and females, with an average weight of 172 g. The animal lots were established as per GLP on pharmacological studies on laboratory-tested animals.

[4] = TW-control group (150 ppm Deuterium tap water daily diet)
[5] = DDW group (daily diet with Deuterium Depleted Water)
[6] = DDW group, cytostatic i.p. 5 days
[7] = TW-control group similarly treated, animals with obvious toxicity signs had to be sacrificed

Protocol for P450 cyto-chromes: To study it, the cell organelles were separated by repeated centrifugation with a final separation of microsomes at 105,000 g via ultra-centrifugation. At the microsomes level, the P450 cyto-chromes (a member of the iso-enzymes family) activity and concentration are measured, which are the most important indications of enzyme activation (MFO).
The P450 concentration is spectrophotometrically determined after CO and Natriumdithionit reduction of microsomal P450 (Omura and Sato method). […] The enzymatic activity has been determined for a single substratum, namely for p-nitroanisol, which involves a de-metilation reaction.

Compound	Amount of glycolysis with Deuterium Depleted Water [1] [mg glucides/g proteins]	Percentage of decrease of protein glycolysis in animals receiving DDW [1] [%]	Amount of Glycolysis with Tap Water [1] [mg glucides/g proteins]	Sialic acid (average values) [2, 5] [mmol/L]	Sialic acid (average values) ([2]; TW-control group) [mmol/L]	P450 activity relative to the control group (P450 cyto-chromes; group of animals treated with Deuterium depleted Water)	spontaneous mortality [3, 6]	spontaneous mortality [3, 7]	signs of toxicity during the 5 days of therapy and post-therapy period ([3]; rat, in vivo, ip)	decrease of the phase I and II enzymes (P450 cyto-chromes; group TW-CFS)	signs of toxicity during the 5 days of therapy and post-therapy period [3, 6]	findings in peripheral blood [4]	percentage of mortality ([3]; DDW group (60 ppm DDW daily diet), cytostatic i.p. 5 days) [%]	percentage of mortality ([3]; TW-control group (tap water daily diet), cytostatic i.p. 5 days) [%]	body weight increase ([3]; rat, in vivo)
O=c1[nH]cc(F)c(=O)[nH]1 [5-fluorouracil, 5-Fluorouracil]	4.2	39	6.89	2.43	3.04	approximately 200%	no records of any spontaneous dead animals	spontaneous mortality occurred	no signs of toxicity						
O=P1(N(CCCl)CCCl)NCCCO1 (stereo not drawn) [Cyclophosphamide]	5.47	17	6.59	2.68	2.77		no records of any spontaneous dead animals	spontaneous mortality occurred		approximately 100%	no signs of toxicity	anemia and granulopenia			
COc1cccc2c1C(=O)c1c(O)c3c(c(O)c1C2=O)C[C@@](O)(C(=O)CO)C[C@@H]3O[C@H]1C[C@H](N)[C@@H](O)[C@H](C)O1 [farmarubicine, Farmarubicine]	6.3	35	9.72	2.62	2.88		no records of any spontaneous dead animals	spontaneous mortality occurred	no signs of toxicity						
CC[C@]1(O)C[C@@H]2CN(CCc3c([nH]c4ccccc34)[C@@](C(=O)OC)(c3cc4c(cc3OC)N(C)[C@H]3[C@@](O)(C(=O)OC)[C@H](OC(C)=O)[C@]5(CC)C=CCN6CC[C@]43[C@@H]65)C2)C1 [vinblastine, Vinblastine]	7.5	7	8.06	2.82	3.00				low intensity toxic effects				25	66	far more evident
